Experimental data reported in patent US5541183A, “Ginkgolide derivatives” (priority 1993, dated 1996).
Where two headings read alike, the source gives them in different places.

What was measured:
[1] = test system: PAF-induced bronchoconstriction; assay: PAF-induced bronchoconstriction in the guinea pig; assay type: in vivo, guinea pig (Hartley strain); conditions: jugular vein, PAF 100 ng/kg i.v.
Procedure: Pharmacology Example 2: PAF-induced bronchoconstriction
All experiments utilized male guinea pigs (Hartley strain), weighing 350 to 450 g, that were anesthetized with ethyl carbamate (1.5 g/kg, i.p.). An intratracheal cannula was inserted into trachea and indwelling catheters were inserted into the right carotid artery and left jugular vein. The animals were ventilated with a small animal respirator (UGO BASILE 7025, 70 breaths/min, 1 ml/stroke/100 g). To monitor dead or not, mean arterial pressure was measured continuously with a pressure transducer (Physiological Pressure Transducer, MICRON INSTRUMENT MP-15) connected to an amplifier (COULBOURN INSTRUMENT 572-25) and recorder (COULBOURN INSTRUMENT R14-18). The rate of bronchoconstriction was measured as an increase in lung overflow with a bronchospasm transducer (UGO BASILE 7020) from a side arm off the tracheal cannula, and expressed as a percentage of maximum bronchoconstriction obtained by clamping off the tracheal cannula. Test compounds or vehicle (0.5% DMSO) were administered through the cannula into the jugular vein and PAF (100 ng/kg, i.v.) was administered. Bronchoconstriction response was compared to that obtained with control group treated with vehicle. Percent inhibition was calculated for each dose. Log dose-response curves were generated and the ID50 values were determined by regression analysis, and the results are presented in Table 2.
Table 2: Results for inhibition of PAF-induced bronchoconstriction in the guinea pig.

[2] = test system: PAF-induced rabbit platelet aggregation; assay: PAF-induced rabbit platelet aggregation; assay type: cell-based, rabbit (New Zealand white); conditions: Oryctolagus cuniculus, read-out: IC50, inhibition of PAF-induced rabbit platelet aggregation
Procedure: Pharmacology Example 1: PAF-induced rabbit platelet aggregation
Blood was collected from the ear artery of a male New Zealand white rabbit and mixed with 3.8% sodium citrate in a 9:1 volume ratio. Platelet rich plasma (PRP) was obtained by centrifugation of the blood at 150 g for 10 min at room temperature. The number of platelets was adjusted to 3×10^8 platelets/ml with platelet poor plasma. Platelet aggregation was monitored by continuous recording of light transmission in a dual-channel aggregometer (Chrono-Log 560-VS) coupled with a two channel recorder (Chrono-Log 707). Stirred PRP was treated with various concentrations of the test compounds or vehicle (0.5% DMSO) for 2 min and then PAF(5×10^-9 M) was added to induce platelet aggregation.
Inhibition values were calculated by comparing the extent of aggregation obtained in the presence of the vehicle alone (0.5% DMSO) and in the presence of a test compound. Log concentration-response curves were generated and the IC50 values were determined by regression analysis.
Table 1 lists results from this assay for inhibition of PAF-induced rabbit platelet aggregation for illustrative examples of the compounds of this invention.

bronchial eosinophilia = assay: aeroallergen-induced bronchial infiltration of eosinophils in the bronchoalveolar lavage fluid; assay type: in vivo, guinea pig (Hartley strain); conditions: 30 mg/kg p.o., + 4h after aeroallergen challenge; for % Inhibition of bronchial eosinophilia: at 24 hours; for Eosinophils in BALF (Mean ± SEM): counted at 24 hours, vehicle 927 ± 131
Procedure: Pharmacology Example 4: The aeroallergen-induced bronchial infiltration of eosinophils in the bronchoalveolar lavage fluid.
Adult, male Hartley-strain guinea pigs weighing 492-735 g were sensitized by intraperitoneal injection of 10 μg ovalbumin (OA) mixed in 100-mg aluminum hydroxide. And guinea pigs were pretreated with pyrilamine (1.0 mg/kg) intraperitoneally 30 min. before aeroallergen challenge. Individual guinea pigs were placed in a two-liter glass chamber and exposed to a five aerosol of OA solution (0.5 mg/ml in saline containing 0.02% antifoal emulsion for a period of 10 min.).
4 hours after aero allergen challenge, the guinea pigs received either vehicle or compounds suspended in 1% acacia by oral garage.
24 hours after aero allergen challenge, the animals were euthanized with an i.p. overdose of pentobarbital sodium (100 mg/kg). The abdominal cavity was opened, and the animal was exsaguinated by cutting the abdominal aorta. A midline incision was made through the rib cage, exposing the heart and lungs.
The trachea was cannulated with an 18-gauge stainless steel feeding tube; 20 ml/kg of prewarmed (37° C.) physiological saline was instilled and the BALF was gently withdrawn.
BALF (amounting to 60-80% of the saline infused) was transferred to a 10 ml vacutainer containing 0.10 ml of 15% EDTA solution and centrifugated at 2400 rpm for 10 min.
The supernatant was poured off, and the cell pellet was suspended in physiological saline equal to the ratio of BALF recovered (ml) and physiological saline instilled in the lungs (ml), multiplied by two.
The eosinophils in BALF were counted by Unopette Test 5877.
The mean numbers of eosinophils±SEM in the BALF of compound-treated animals and corresponding control "vehicle"-treated animals were compared by Student's t-test. A P value of 0.05 or less was considered significant. Table 4 lists results from this assay for inhibition of bronchial eosinophilia for illustrative examples of this invention.

PAF induced Lethality = PAF induced Lethality in Mice; assay type: in vivo; conditions: 10 mg/kg intraperitoneally, 2 minutes before PAF 10 μg/kg I.V.; alive after 2 hours; control 0
Procedure: Pharmacology Example 5: PAF induced Lethality in Mice
PAF given I.V. (10 μg/kg) to mice causes an immediate hypotensive shock leading to death in 1 hour or less. Compounds were given intraperitoneally (dose of compounds : 10 mg/kg) at 2 minutes before the PAF challenge. Animals alive after 2 hours were counted and the activity of test compounds expressed as % survival corrected for any control (saline treated) animals which survived the PAF challenge.

[3] = test system: Ag-induced bronchoconstriction; assay: Ag-induced bronchoconstriction in the guinea pig; assay type: in vivo, guinea pig (Hartley strain); conditions: for ED50: Cavia porcellus, iv, 10 min, read-out: ID50, Ag-induced bronchoconstriction
Procedure: Pharmacology Example 3: Ag-induced bronchoconstriction
All experiments utilized male guinea pigs (Hartley strain), weighing 350 to 500 g. The animal was passively sensitized with rabbit anti-chicken egg albumin (1.3 mg/kg), 17-24 hrs before ovaibumin challenge. Passively sensitized animals were anesthetized with ethyl carbamate 1.5 g/kg, i.p.). An intratracheal cannula was inserted into trachea and indwelling catheters were inserted into the right carotid artery and left jugular vein. The animals were ventilated with a small animal respirator (UGO BASILE 7025, 70 breaths/min, 1 ml/stroke/100 g). To monitor dead or not, mean arterial pressure was measured continuously with a pressure transducer (Physiological Pressure Transducer, MICRON INSTRUMENT MP-15) connected to an amplifier (COULBOURN INSTRUMENT 572-25) and recorder (COULBOURN INSTRUMENT R14-18). The rate of bronchoconstriction was measured as an increase in lung overflow with a bronchospasm transducer (UGO BASILE 7020) from a side arm off the tracheal cannula, and expressed as a percentage of maximum broncoconstriction obtained by clamping off the tracheal cannular. Test compounds or vehicle (0.5% DMSO) were administered through the cannula into the jugular vein and ovalbumin (1.0 mg/kg, i.v.) was administered 10 minutes later. Bronchoconstriction response was compared to that obtained with control group treated with vehicle. Percent inhibition was calculated for each dose. If necessary, log dose-response curves were generated and the ID50 values were determined by regression analysis.

[4] = 0.1 mg/kg, jugular vein, ovalbumin 1.0 mg/kg i.v. 10 minutes later
[5] = 0.5 mg/kg, jugular vein, ovalbumin 1.0 mg/kg i.v. 10 minutes later
[6] = 1.0 mg/kg, jugular vein, ovalbumin 1.0 mg/kg i.v. 10 minutes later
[7] = jugular vein, ovalbumin 1.0 mg/kg i.v. 10 minutes later

Compound | % inhibition of PAF-induced bronchoconstriction ([1]; 0.01 mg/kg) [%] | % inhibition of PAF-induced bronchoconstriction ([1]; 0.02 mg/kg) [%] | % inhibition of PAF-induced bronchoconstriction ([1]; 0.04 mg/kg) [%] | ED50 ([1]; Cavia porcellus, iv, read-out: ID50, PAF-induced bronchoconstriction) [mg/kg] | IC50 ([2]; rabbit PRP, PAF 5×10^-9 M) [nM] | % Inhibition of bronchial eosinophilia (bronchial eosinophilia) [%] | Eosinophils in BALF (Mean ± SEM) (bronchial eosinophilia) | Survival rate (%) (PAF induced Lethality) | % inhibition of Ag-induced bronchoconstriction [3, 4] [%] | % inhibition of Ag-induced bronchoconstriction [3, 5] [%] | % inhibition of Ag-induced bronchoconstriction [3, 6] [%] | ED50 [3, 7] [mg/kg] | IC50 [2] [nM] | ED50 [3] [mg/kg]
Cc1cnc(COC2C(=O)OC3OC45C(=O)OC6CC(C(C)(C)C)C32C64C(O)C2OC(=O)C(C)C25O)c(C)c1 (centres unmarked) [Example 96, 10-(3,5-dimethyl-2-pyridinyl) -methoxy-Ginkgolide] | 17 | 26 | 96 | 0.023 | 24.5 | 31 | 641 ± 134 10^3 cells/m1 BALF | 100 | 50 | 97 | 100 | 0.1 |  | 
CC1C(=O)OC2C(O)C34C5CC(C(C)(C)C)C36C(OC(=O)C6OCc3ccc(O)cn3)OC4(C(=O)O5)C12O (centres unmarked) [Example 115, 10-(2-(5-hydroxypyridinyl)-methoxy)-Ginkgolide B] |  |  |  |  | 152 |  |  | 100 | 65 | 100 | 100 | 0.08 |  | 
CC1C(=O)OC2C(O)C34C5CC(C(C)(C)C)C36C(OC(=O)C6OCc3ccc6c(c3)OCO6)OC4(C(=O)O5)C12O (centres unmarked) [Example 82, 10-piperonyloxy-Ginkgolide B] |  |  |  |  |  | 34 | 616 ± 145 10^3 cells/m1 BALF | 100 | 60 | 94 | 100 |  | 50.7 | 0.09
